According to PubChem BioAssay (NCI):
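All cell lines were grown in 96-well plates and treated with compound for 48 hours. GI50: concentration for 50% inhibition of growth. TGI is the concentration that stops growth completely.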

Tests used:
Experiment in all cases: NCI anticancer screen, dose series, 48 h
[1] = system: M14 melanoma
[2] = system: SK-OV-3 ovarian
[3] = system: HL-60(TB) leukemia
[4] = system: UACC-62 melanoma
[5] = system: A498 renal
[6] = system: HCC-2998 colon
[7] = system: NCI/ADR-RES ovarian
[8] = system: UACC-257 melanoma
[9] = system: HOP-62 NSCLC
[10] = system: UO-31 renal
[11] = system: OVCAR-3 ovarian
[12] = system: MALME-3M melanoma
[13] = system: U251 CNS
[14] = system: NCI-H226 lung
[15] = system: SW-620 colon
[16] = system: BT-549 breast
[17] = system: NCI-H460 lung
[18] = system: MDA-MB-231 breast
[19] = system: SF-539 CNS
[20] = system: SK-MEL-2 melanoma
[21] = system: OVCAR-8 ovarian
[22] = system: SK-MEL-5 melanoma
[23] = system: SNB-19 CNS
[24] = system: OVCAR-5 ovarian
[25] = system: TK-10 renal
[26] = system: OVCAR-4 ovarian
[27] = system: CCRF-CEM leukemia
[28] = system: PC-3 prostate
[29] = system: K-562 leukemia

O=C(Nc1ccccc1C(=O)N/N=C(\c1ccccc1)c1ccccn1)c1ccccc1
GI50 [1]: 457 nM | TGI [1]: 4630 nM | GI50 [2]: 504 nM | TGI [2]: > 100000 nM | GI50 [3]: 606 nM | TGI [3]: > 22000 nM | GI50 [4]: 496 nM | GI50 [5]: 2950 nM | TGI [5]: > 100000 nM | GI50 [6]: 537 nM | TGI [6]: > 100000 nM | GI50 [7]: 276 nM | TGI [7]: > 100000 nM | GI50 [8]: 2580 nM | TGI [8]: > 100000 nM | GI50 [9]: 396 nM | TGI [9]: > 100000 nM | GI50 [10]: 428 nM | TGI [10]: > 25500 nM | GI50 [11]: 346 nM | TGI [11]: > 100000 nM | GI50 [12]: 1750 nM | TGI [12]: > 100000 nM | GI50 [13]: 657 nM | TGI [13]: > 100000 nM | GI50 [14]: 828 nM | TGI [14]: > 100000 nM | GI50 [15]: 723 nM | TGI [15]: > 100000 nM | GI50 [16]: 2180 nM | TGI [16]: > 100000 nM | GI50 [17]: 402 nM | TGI [17]: > 100000 nM | GI50 [18]: 478 nM | TGI [18]: > 100000 nM | GI50 [19]: 621 nM | TGI [19]: > 100000 nM | GI50 [20]: 4850 nM | TGI [20]: > 100000 nM | GI50 [21]: 583 nM | TGI [21]: > 100000 nM | GI50 [22]: 560 nM | TGI [22]: 2460 nM | GI50 [23]: 912 nM | TGI [23]: > 100000 nM | GI50 [24]: 933 nM | TGI [24]: > 100000 nM | GI50 [25]: 584 nM | TGI [25]: > 100000 nM | GI50 [26]: 330 nM | TGI [26]: > 100000 nM | GI50 [27]: 351 nM | TGI [27]: > 100000 nM | GI50 [28]: 711 nM | TGI [28]: > 100000 nM | GI50 [29]: 1450 nM | TGI [29]: > 100000 nM
